Assay [1] concerns the target T1, Glycogen synthase kinase-3 beta (Homo sapiens, UniProt P49841). Briefly: GSK3beta kinase inhibitors, dose response, biochemical, microfluidics, dry powder samples, set 2 (AID 623989). The class given is functional.
The target of assay [2] is Glycogen synthase kinase-3 alpha (Homo sapiens, UniProt P49840). Briefly: human GSK3 alpha kinase inhibition, dose response, selectivity assay for GSK3beta inhibitor project, biochemical, microfluidics, dry powder samples, set 2 (AID 623978). The class given is functional.
A short description of assay [3]: THP-1 cell cytotoxicity, cytotoxicity control, set 4 (AID 504911). The format is functional. Particulars: Mycobacterium tuberculosis.
Assay [4] in a line: Vero cell cytotoxicity, dose response, cytotoxicity control for M. tuberculosis growth inhibitor project, Vero cells, purified and synthesized compounds, set 4 (AID 504854). Conditions: Mycobacterium tuberculosis. The format is functional.
Assay [5] is described as follows: THP-1 cell cytotoxicity, dose response, cytotoxicity control, set 3 (AID 504852). The class given is functional. Particulars: Mycobacterium tuberculosis.
Assay [6] addresses T2, High affinity choline transporter 1 (Homo sapiens, UniProt Q9GZV3).
T2 sequence (Q9GZV3 whole entry): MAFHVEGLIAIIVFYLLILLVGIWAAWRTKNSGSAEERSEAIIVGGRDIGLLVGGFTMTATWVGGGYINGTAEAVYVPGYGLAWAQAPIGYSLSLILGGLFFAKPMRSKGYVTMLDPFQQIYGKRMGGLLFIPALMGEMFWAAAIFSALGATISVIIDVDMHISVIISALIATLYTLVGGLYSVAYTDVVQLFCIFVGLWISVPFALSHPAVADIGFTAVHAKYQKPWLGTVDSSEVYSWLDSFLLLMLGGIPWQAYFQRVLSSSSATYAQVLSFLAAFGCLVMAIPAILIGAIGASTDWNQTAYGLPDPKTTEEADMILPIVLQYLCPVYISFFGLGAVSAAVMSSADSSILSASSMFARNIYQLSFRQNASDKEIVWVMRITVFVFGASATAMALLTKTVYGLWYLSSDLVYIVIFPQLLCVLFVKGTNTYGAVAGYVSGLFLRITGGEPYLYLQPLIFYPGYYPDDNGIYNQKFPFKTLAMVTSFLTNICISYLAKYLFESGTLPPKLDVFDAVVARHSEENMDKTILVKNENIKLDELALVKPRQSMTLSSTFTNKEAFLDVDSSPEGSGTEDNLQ
As to the kind of experiment: CHT activators, dose response, cell-based, 10-point CRC, membrane potential dye (AID 602376). The format is functional.

In the next assay the test system is CHO. Briefly: cytotoxicity in TLR9-MyD88 CHO cells, dose response, cytotoxicity control for TLR9-MyD88 binding inhibitor project, cell-based, luminescence (AID 588339).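 Note: CHO cells stably coexpressing TLR9 and MyD88 fusions from primary screen; compound exposure lasted 48 hours before viability readout.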 Particulars: Cricetulus griseus. The format is functional, hamster.
Another assay deals with Beta Lactamase (Pseudomonas aeruginosa, UniProt Q932Y6). Briefly: beta-lactamase reporter inhibitor potency, dose response, artefact control for TLR9-MyD88 binding inhibitor project, BLA reporter cells, FRET fluorescence (AID 588341).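 Note: cell based assay in CHO-K1 cells stably expressing beta-lactamase.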 The class given is cell-based.
Beta Lactamase, sequence (Q932Y6 whole entry): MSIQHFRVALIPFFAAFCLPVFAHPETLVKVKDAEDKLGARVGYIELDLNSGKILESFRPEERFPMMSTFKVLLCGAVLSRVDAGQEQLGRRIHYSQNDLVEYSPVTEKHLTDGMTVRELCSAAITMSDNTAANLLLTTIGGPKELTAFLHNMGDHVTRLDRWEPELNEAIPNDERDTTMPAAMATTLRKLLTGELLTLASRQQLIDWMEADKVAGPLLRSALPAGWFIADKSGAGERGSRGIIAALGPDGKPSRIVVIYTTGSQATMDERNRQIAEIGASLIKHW
The test system of assay [7] is INS1. Briefly: protection from cytokine-induced mitochondrial depolarization, dose response, cell-based, INS-1E, JC-1 fluorescence ratio, dry powder (AID 488931). Conditions: Rattus norvegicus. The format is functional.
Assay [8] concerns INS1. As to the kind of experiment: protection of INS-1E cells from cytokine death, dose response, ATP luminescence, dry powder (AID 488844). The class given is functional, cell-based. Particulars: Rattus norvegicus.
In assay [9] the test system is INS1. Briefly: inhibitors of cytokine-induced nitrite release, dose response, cell-based, Griess absorbance, INS-1E, dry powder (AID 488866). The format is functional. Conditions: Rattus norvegicus.
Assay [10] relates to INS1. Briefly: inhibitors of cytokine-induced nitrite release, dose response, cell-based, Griess absorbance, INS-1E, dry powder, set 2 (AID 488868). The format is functional. Conditions: Rattus norvegicus.
Assay [11] in a line: inhibitors of cytokine-induced nitrite release, dose response, cell-based, Griess absorbance, INS-1E, dry powder, set 3 (AID 488870). The format is functional. Conditions: Rattus norvegicus.
The target of another assay is LIM domain kinase 1 (Homo sapiens, UniProt P53667). As to the kind of experiment: Navigating the Kinome. Panel member name: LIMK1. The format is functional.
Assay [12] deals with Serine/threonine-protein kinase pim-1 (Homo sapiens, UniProt P11309). The format is functional.
For assay [13], the target named is Cyclin-dependent kinase 7 (Homo sapiens, UniProt P50613). The class given is functional.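 Note: value comes from a kinome-wide kinase profiling panel in which CDK7 is one member.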
Assay [14] addresses Cyclin-dependent kinase 8 (Homo sapiens, UniProt P49336). As to the kind of experiment: Navigating the Kinome. Panel member name: CDK8. The format is functional.
For assay [15], the target named is T1, Glycogen synthase kinase-3 beta. The format is functional.
In assay [16] the target is Cyclin-dependent kinase 9 (Homo sapiens, UniProt P50750). The class given is functional.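 Note: value from the CDK9 entry of a kinome-spanning kinase panel.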
The target of assay [17] is Dual specificity protein kinase CLK4 (Homo sapiens, UniProt Q9HAZ1). The format is functional.
The target in assay [18] is Serine/threonine-protein kinase Chk1 (Homo sapiens, UniProt O14757). The format is functional.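 Note: measured as one member of a kinome-wide kinase profiling panel.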
The target of assay [19] is Rho-associated protein kinase 1 (Homo sapiens, UniProt Q13464). The class given is functional.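 Note: measured within a broad kinome-wide panel profiling many kinases.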
Rho-associated protein kinase 1, sequence (Q13464 whole entry): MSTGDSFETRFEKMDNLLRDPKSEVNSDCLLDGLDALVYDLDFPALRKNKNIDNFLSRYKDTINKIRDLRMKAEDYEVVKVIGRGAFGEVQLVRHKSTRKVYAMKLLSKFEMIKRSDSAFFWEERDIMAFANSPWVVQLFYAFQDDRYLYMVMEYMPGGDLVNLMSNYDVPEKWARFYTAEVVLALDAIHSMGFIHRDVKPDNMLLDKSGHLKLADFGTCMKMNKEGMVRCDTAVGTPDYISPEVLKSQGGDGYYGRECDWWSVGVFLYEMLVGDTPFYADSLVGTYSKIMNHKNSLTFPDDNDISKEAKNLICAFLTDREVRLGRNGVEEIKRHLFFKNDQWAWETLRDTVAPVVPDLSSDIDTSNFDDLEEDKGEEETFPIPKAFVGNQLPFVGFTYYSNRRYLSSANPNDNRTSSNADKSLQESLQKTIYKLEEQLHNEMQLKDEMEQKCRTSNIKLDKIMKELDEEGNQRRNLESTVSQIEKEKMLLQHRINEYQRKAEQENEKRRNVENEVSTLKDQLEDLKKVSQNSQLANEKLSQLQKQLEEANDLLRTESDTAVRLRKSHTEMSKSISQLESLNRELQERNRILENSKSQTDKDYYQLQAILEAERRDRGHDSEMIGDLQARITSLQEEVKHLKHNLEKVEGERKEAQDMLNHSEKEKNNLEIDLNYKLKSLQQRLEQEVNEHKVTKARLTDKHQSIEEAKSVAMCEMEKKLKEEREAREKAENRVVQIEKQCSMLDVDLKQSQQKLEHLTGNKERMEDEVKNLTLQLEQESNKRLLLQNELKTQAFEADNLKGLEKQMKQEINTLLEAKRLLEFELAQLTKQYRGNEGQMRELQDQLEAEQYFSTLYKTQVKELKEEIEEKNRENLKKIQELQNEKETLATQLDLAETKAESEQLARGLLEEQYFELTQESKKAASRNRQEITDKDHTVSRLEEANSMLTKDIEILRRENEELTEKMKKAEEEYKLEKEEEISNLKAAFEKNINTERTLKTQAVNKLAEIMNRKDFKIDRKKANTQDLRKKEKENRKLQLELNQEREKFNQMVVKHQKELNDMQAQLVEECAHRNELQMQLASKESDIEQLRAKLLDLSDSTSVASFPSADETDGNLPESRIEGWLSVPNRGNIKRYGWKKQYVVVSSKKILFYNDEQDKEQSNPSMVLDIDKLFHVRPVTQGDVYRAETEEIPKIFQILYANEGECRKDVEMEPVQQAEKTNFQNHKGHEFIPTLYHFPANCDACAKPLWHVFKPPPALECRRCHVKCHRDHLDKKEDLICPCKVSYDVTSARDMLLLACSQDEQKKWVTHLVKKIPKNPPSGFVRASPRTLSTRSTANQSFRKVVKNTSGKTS
For assay [20], the target named is Melanin-concentrating hormone receptor 1 (Homo sapiens, UniProt Q99705). As to the kind of experiment: Late-stage fluorescence-based counterscreen for antagonists of the G-protein coupled receptor 7 (GPR7): cell-based dose response assay to identify antagonists of the melanin-concentrating hormone receptor 1 (MCHR1) Set 5. The class given is functional.
Melanin-concentrating hormone receptor 1, sequence (Q99705 whole entry): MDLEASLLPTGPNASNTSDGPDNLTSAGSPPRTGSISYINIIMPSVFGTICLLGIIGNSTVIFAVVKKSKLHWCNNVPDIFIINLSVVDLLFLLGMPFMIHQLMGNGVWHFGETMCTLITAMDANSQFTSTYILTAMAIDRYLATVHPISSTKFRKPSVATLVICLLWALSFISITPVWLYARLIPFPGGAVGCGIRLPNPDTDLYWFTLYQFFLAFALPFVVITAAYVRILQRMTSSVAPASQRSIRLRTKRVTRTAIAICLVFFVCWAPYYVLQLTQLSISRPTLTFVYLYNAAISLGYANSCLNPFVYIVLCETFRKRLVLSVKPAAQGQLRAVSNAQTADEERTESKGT
Assay [21] deals with Neuropeptides B/W receptor type 1 (Homo sapiens, UniProt P48145). Briefly: GPR7 antagonist potency, late-stage follow-up, cell-based, fluorescence, dose response, set 5 (AID 588566). The class given is functional.
Neuropeptides B/W receptor type 1, sequence (P48145 whole entry): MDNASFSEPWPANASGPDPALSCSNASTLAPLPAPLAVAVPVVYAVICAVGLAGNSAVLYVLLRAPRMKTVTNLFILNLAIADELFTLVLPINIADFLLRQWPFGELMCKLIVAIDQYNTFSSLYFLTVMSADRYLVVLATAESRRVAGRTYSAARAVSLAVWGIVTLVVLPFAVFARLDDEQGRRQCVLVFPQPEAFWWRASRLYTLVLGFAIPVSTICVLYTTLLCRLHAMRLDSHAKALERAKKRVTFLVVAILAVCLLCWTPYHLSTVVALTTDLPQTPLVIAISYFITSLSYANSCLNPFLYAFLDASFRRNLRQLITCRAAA
Assay [22] deals with Cell division cycle 7-related protein kinase (Homo sapiens, UniProt O00311). The class given is functional.
Cell division cycle 7-related protein kinase, sequence (O00311 whole entry): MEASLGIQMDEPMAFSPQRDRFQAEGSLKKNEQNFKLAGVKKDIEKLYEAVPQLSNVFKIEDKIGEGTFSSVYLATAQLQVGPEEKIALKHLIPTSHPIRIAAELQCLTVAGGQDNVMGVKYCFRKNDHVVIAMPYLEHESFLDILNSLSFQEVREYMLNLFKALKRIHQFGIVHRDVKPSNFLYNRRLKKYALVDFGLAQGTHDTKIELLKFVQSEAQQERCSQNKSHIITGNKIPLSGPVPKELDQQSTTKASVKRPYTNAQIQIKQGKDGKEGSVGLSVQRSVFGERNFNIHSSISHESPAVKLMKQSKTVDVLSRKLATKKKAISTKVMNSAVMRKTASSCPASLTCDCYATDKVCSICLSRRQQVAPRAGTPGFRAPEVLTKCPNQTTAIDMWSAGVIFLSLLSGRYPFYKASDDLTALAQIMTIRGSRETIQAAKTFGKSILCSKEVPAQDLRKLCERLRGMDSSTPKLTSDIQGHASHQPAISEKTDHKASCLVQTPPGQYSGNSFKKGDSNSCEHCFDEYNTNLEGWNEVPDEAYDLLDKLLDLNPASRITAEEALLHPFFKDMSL
The target of assay [23] is Eukaryotic elongation factor 2 kinase (Homo sapiens, UniProt O00418). The class given is functional.
Assay [24] concerns the target Cyclin-dependent kinase 1 (Homo sapiens, UniProt P06493). The format is functional.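 Note: Kinome-wide panel profiling, with the target listed as panel member CDC2.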
Assay [25] concerns the target T3, Dual specificity tyrosine-phosphorylation-regulated kinase 3 (Homo sapiens, UniProt O43781).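 Note: measured as one member of a broad kinase panel.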
T3 sequence (O43781 whole entry): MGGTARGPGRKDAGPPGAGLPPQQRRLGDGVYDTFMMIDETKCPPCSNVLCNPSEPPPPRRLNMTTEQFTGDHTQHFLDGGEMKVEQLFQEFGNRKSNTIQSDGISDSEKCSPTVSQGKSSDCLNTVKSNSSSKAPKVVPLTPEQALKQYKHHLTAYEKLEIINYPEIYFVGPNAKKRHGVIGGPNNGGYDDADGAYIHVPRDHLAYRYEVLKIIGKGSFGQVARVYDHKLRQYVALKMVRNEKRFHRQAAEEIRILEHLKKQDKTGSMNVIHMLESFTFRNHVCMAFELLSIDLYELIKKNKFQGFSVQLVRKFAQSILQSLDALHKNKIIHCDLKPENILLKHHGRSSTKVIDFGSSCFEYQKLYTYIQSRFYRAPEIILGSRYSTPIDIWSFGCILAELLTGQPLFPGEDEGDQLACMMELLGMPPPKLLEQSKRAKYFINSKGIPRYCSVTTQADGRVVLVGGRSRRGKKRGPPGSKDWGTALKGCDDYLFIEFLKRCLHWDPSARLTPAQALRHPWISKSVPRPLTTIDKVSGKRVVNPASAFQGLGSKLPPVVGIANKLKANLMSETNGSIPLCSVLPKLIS
The class given is functional.

For assay [26], the target named is MAP kinase-activated protein kinase 3 (Homo sapiens, UniProt Q16644). The format is functional.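 Note: value comes from a kinome-wide profiling panel in which MAPKAPK3 is one of the panel members.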
MAP kinase-activated protein kinase 3, sequence (Q16644 whole entry): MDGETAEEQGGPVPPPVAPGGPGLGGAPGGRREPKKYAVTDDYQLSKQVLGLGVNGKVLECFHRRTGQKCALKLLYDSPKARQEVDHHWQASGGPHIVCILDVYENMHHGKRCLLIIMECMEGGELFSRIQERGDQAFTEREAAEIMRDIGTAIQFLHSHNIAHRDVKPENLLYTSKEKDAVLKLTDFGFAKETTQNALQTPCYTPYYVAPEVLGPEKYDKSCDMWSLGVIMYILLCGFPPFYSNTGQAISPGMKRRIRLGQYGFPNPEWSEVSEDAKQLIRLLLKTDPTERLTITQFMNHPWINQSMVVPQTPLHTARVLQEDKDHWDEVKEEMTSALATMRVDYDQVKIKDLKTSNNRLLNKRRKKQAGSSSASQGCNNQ
The target in assay [27] is T4, Testis-specific serine/threonine-protein kinase 2 (Homo sapiens, UniProt Q96PF2).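 Note: part of the Navigating the Kinome panel, target entry STK22B.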
T4 sequence (Q96PF2 whole entry): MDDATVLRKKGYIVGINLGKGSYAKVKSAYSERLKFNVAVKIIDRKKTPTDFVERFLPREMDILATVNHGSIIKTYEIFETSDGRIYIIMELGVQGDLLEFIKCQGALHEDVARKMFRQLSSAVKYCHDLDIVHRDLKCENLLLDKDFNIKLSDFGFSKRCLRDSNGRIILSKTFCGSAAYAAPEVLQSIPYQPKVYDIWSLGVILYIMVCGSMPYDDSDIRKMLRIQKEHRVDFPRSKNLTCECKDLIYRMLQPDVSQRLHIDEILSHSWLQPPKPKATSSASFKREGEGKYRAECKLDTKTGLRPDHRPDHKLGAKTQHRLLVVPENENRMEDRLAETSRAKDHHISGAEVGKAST
The class given is functional.

For assay [28], the target named is T5, Protein kinase C zeta type (Homo sapiens, UniProt Q05513).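 Note: measured as one member of a broad kinase profiling panel.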
T5 sequence (Q05513 whole entry): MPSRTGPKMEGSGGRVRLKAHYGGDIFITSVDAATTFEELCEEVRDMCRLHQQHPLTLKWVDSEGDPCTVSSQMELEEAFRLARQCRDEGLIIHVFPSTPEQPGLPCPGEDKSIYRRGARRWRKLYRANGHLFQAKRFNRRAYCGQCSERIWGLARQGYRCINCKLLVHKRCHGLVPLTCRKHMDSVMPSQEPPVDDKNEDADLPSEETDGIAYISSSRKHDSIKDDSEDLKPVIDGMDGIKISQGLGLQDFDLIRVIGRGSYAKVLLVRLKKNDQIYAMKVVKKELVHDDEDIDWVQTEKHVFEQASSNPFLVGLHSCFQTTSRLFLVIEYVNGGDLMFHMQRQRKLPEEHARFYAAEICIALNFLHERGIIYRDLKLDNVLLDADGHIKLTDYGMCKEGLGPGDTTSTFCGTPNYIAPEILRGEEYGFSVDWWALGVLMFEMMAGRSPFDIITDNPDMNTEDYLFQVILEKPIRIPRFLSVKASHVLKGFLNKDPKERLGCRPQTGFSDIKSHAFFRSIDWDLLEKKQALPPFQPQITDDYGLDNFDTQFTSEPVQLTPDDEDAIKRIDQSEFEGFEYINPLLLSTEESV
The format is functional.

Assay [29] has as its target Protein kinase C gamma type (Homo sapiens, UniProt P05129). The format is functional.
For assay [30], the target named is T6, Lymphokine-activated killer T-cell-originated protein kinase (Homo sapiens, UniProt Q96KB5).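 Note: value comes from a kinase panel screen in which TOPK was one of the panel members.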
T6 sequence (Q96KB5 whole entry): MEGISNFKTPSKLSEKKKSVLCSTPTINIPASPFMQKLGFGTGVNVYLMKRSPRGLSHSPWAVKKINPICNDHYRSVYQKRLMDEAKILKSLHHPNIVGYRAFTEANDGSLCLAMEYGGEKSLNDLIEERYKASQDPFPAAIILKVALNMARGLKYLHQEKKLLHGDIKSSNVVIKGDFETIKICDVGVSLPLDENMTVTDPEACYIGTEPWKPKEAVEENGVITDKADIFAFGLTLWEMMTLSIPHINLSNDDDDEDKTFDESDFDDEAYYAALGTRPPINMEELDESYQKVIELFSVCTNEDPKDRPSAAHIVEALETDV
The class given is functional.

The target in assay [31] is G protein-coupled receptor kinase 5 (Homo sapiens, UniProt P34947). As to the kind of experiment: Navigating the Kinome. Panel member name: GPRK5. The format is functional.
Assay [32] has as its target PAS domain-containing serine/threonine-protein kinase (Homo sapiens, UniProt Q96RG2). The class given is functional.
Assay [33] has as its target Interleukin-1 receptor-associated kinase 1 (Homo sapiens, UniProt P51617). The format is functional.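 Note: IRAK1 tested as one member of a kinome panel.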
In assay [34] the target is Serine/threonine-protein kinase PLK3 (Homo sapiens, UniProt Q9H4B4). The class given is functional.
The target of assay [35] is Serine/threonine-protein kinase PLK4 (Homo sapiens, UniProt O00444). The class given is functional.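 Note: PLK4 measured as one member of a kinome-wide kinase profiling panel.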

Activity calls are given as the source filed them.

T1 sequence (P49841 whole entry): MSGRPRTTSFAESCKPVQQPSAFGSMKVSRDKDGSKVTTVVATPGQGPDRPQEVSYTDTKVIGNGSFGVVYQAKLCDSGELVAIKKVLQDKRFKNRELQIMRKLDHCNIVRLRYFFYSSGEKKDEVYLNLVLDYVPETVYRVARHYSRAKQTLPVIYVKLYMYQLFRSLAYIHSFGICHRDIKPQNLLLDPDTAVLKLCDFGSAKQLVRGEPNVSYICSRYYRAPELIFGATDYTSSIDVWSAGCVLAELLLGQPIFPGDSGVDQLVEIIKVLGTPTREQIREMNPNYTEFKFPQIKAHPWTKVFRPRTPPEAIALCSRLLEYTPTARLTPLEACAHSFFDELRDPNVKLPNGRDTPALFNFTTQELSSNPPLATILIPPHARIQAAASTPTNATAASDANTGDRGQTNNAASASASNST
Interleukin-1 receptor-associated kinase 1, sequence (P51617 whole entry): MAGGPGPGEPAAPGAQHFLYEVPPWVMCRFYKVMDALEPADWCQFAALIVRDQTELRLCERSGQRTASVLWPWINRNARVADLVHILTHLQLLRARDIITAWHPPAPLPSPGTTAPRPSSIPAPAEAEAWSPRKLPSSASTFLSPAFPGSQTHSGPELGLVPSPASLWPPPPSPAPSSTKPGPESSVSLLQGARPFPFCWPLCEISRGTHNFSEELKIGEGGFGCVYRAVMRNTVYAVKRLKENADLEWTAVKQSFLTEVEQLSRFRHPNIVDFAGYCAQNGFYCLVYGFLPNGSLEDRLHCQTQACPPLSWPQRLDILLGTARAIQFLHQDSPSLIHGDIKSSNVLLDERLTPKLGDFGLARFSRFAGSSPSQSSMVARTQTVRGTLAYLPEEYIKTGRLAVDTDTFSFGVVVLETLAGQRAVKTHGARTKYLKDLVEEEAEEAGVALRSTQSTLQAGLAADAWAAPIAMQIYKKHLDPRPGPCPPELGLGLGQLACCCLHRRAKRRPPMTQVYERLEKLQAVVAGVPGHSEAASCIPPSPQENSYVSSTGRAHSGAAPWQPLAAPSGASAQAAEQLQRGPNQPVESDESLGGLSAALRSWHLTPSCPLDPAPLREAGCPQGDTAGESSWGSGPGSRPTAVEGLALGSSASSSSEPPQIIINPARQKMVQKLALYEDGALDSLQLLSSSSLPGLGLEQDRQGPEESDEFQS
Cyclin-dependent kinase 1, sequence (P06493 whole entry): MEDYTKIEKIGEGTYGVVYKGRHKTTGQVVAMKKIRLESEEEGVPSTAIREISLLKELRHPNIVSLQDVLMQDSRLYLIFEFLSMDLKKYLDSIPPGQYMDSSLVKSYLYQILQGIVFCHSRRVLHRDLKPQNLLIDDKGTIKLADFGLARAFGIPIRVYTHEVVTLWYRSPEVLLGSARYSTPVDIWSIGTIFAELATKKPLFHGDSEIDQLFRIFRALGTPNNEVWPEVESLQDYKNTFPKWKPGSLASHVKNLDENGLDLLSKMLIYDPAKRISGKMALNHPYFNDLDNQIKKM

On to `Nc1nc(NCC2CCCO2)nc(Nc2ccc(Cl)cc2)c1[N+](=O)[O-]` (stereo not drawn), for which the AC50 in assay [1] is 0.429 µM (active); in assay [2] it was 1.56 µM (active).
In the case of `COC(=O)C(C)Oc1ccc(Cc2ncc(C(F)(F)F)cc2Cl)cc1` (stereo not drawn), the CC50 in assay [3], in assay [4] and in assay [5] was > 100 µM (active) throughout.
For the compound `CN(Cc1cccc(F)c1)C(=O)c1ccccc1Sc1ccccc1C#N`, the EC50 in assay [6] is 15 µM (active).
In the case of `Nc1ccc2c(c1)Cc1cc([N+](=O)[O-])ccc1-2`, the IC50 with CHO was > 49.8 µM (inactive); at Beta Lactamase, 6.37 µM (active).
On to `COc1ccc(S(=O)(=O)N(C)C[C@@H]2Oc3c(NC(=O)Nc4cccc5ccccc45)cccc3C(=O)N([C@@H](C)CO)C[C@H]2C)cc1Cl`, for which the AC50 in the assay with INS1 [7] is 147 µM (active); in the assay on INS1 [8], 27.3 µM (active); in the assay with INS1 [9], 46.3 µM (active); with INS1 [10], 39.5 µM (active); in assay [11] it was 52.8 µM (active).
With `O=C(C=Cc1ccc(Br)cc1)Nc1cccc2cnccc12`, the inhibitory constant (Ki) was 3.16 µM (active) at LIM domain kinase 1; 2.51 µM (active) in [12]; 1.58 µM (active) in [13]; 2 µM (active) in [14]; 2 µM (active) in assay [15]; 1.58 µM (active) in assay [16]. Also, the Ki in [17] is 1.58 µM (active); in [18] it was 2 µM (active); in assay [19], 3.16 µM (active).
Consider `COc1ccc(Oc2c(F)cnn(Cc3cccc4ccccc34)c2=O)cc1`, for which the IC50 in [20] is 8.86 µM (active); in assay [21], 2.07 µM (active).
For the compound `CNC(=O)c1ccccc1Sc1ccc2c(C=Cc3ccccn3)n[nH]c2c1`, the Ki is > 1.26 µM (inactive) in assay [22]; > 3.98 µM (inactive) in assay [23]; > 7.94 µM (inactive) in [24]; > 6.31 µM (inactive) in assay [25]; > 10 µM (inactive) in assay [26]; > 1.58 µM (inactive) in assay [27]. Further, the Ki in assay [28] is > 7.94 µM (inactive); in assay [29], > 7.94 µM (inactive); in assay [30], > 10 µM (inactive); in [31], > 3.98 µM (inactive); in [32], > 1.58 µM (inactive).
For `CCCn1c(=O)c2[nH]c(-c3cnn(Cc4cccc(C(F)(F)F)c4)c3)nc2n(CC)c1=O` [GS 6201], the Ki in assay [33] was 7.94 µM (active); in assay [34], 7.94 µM (active); in assay [35] it was 3.98 µM (active).
